In patent US11352352B2, “Aminopyrimidine compound, preparation method therefor and use thereof” (BEIJING ADAMADLE BIOTECHNOLOGY LIMITED LIABILITY COMPANY, priority 2017, dated 2022):

How the values were obtained:
NCI-H1975 = experiment: Cell proliferation inhibition experiment, CellTiter-Glo (CTG) method; type: cell-based; conditions: for IC50: NCI-H1975 cells, CTG, 3 days; for A-431/NCI-H1975 Selectivity: ratio of A-431 IC50 to NCI-H1975 IC50
How it was run: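 NCI-H1975 cells with viability above 90% by trypan blue were seeded at 90 μL per well in black 96-well plates and incubated overnight at 37° C., 5% CO2. Compounds were added at nine concentrations in triplicate, and viability was measured with CellTiter-Glo luminescence on EnVision. IC50 came from non-linear S-curve fitting in GraphPad Prism 5.0.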

PC-9 = experiment: as above; type: cell-based; conditions: PC-9 cells, 3 days
How it was run: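 Cells in log-phase growth (viability above 90% by trypan blue) were seeded at 90 μL per well in black-walled, clear-bottom 96-well plates and incubated overnight at 37° C., 5% CO2. A T0 plate was read the next day. Test compounds were added at nine concentrations in triplicate with a solvent control. Viability was measured by CellTiter-Glo luminescence on EnVision, and IC50 came from non-linear S-curve fitting in GraphPad Prism 5.0.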

A-431 = experiment: as above; type: cell-based; conditions: A-431 cells, 3 days
How it was run: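 Log-phase cells (viability >90%) were plated and incubated overnight, then dosed in triplicate across nine 3-fold concentrations. The top dose was 30 μM on A-431 and 1.111 μM on NCI-H1975 and PC-9. Survival after 3 days was measured by CellTiter-Glo and IC50 derived by non-linear regression.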

P-gp = target: T1, P-gp (Homo sapiens, UniProt P08183); experiment: P-gp substrate evaluation experiment (MDCKII-MDR1 Transwell drug penetration test); type: in vitro ADME; conditions: dog, MDCK-MDR1, pH 7.4; read-out: ER (Efflux Ratio)
T1 construct: expressed in transfected cells; host or cells: MDCKII-MDR1 (MDCKII canine kidney cells expressing MDR1)
Method: P-gp Substrate Evaluation Experiment
Cell Culture • 1) High glucose DMEM medium containing L-glutamine was used and 10% fetal bovine serum, 0.1 mg/mL streptomycin and 0.6 mg/mL penicillin were added. • 2) MDCKII-MDR1 was cultured in a T-75 cell culture bottle. The incubator was set at the condition of 37° C., 5% CO2 and 95% relative humidity. Cells could be inoculated in Transwell when the cell confluence reached 70-90%. • 3) Before cell plant, 50 μL cell culture medium was added to each well in the upper chamber of the Transwell, and […] cell culture medium was added to the lower chamber of the Transwell.
Inoculation of MDCKII-MDR1 Cells • 1) Cell suspension was added to the upper chamber of the 96-well Transwell plate with […] each well, and the final inoculation density was 5.45×10^5 cells/cm^2. • 2) The medium was changed 48 hours after inoculation, the culture was carried out for 4-7 days, and the medium was changed every other day.
Evaluation of Cell Monolayer Integrity • 1) After 4-7 days of culture, MDCKII-MDR1 and MDKII should merge and differentiate completely. At this time, they could be applied to penetration test. • 2) The resistance of cell monolayer was measured by a resistance meter (Millipore, USA) and the resistance of each well was recorded. • 3) After finishing the detection, the Transwell plate was put back into the incubator. • 4) Resistance value was calculated: Resistance measured (ohms)×layer area (cm^2)=TEER value (ohm·cm^2)
If TEER value was less than 42 ohms·cm^2, the well can not be used for penetration testing.
Drug Penetration Test • 1) The MDCKII-MDR1 Transwell plate was taken out from the incubator. The cell monolayer was rinsed with HBSS buffer (25 mM HEPES, pH 7.4) twice and incubated for 30 minutes at 37° C. • 2) The transport rate of compounds from the top to the bottom was determined. […] 70 μL supernatant was drawn, diluted with equal volume of water and then subjected to LC-MS/MS analysis. All samples were prepared in three parallel ways. • 6) The cell monolayer integrity after 2-hour incubation was evaluated by leakage of fluorescent yellow, HBSS (25 mM HEPES, pH 7.4) was used to dilute the stock solution of fluorescent yellow till the final concentration was 100 μM. 100 μL fluorescent yellow solution was added to each well in the upper chamber of the Transwell plate and 300 μL HBSS (25 mM HEPES, pH 7.4) was added to each well in the lower chamber of the Transwell plate. After incubation at 37° C. for 30 minutes, 80 μL solution was drawn respectively from each well in the upper and lower chamber to a new 96-well plate. The fluorescence was determined at 485 nm as excitation wavelength and 530 nm as emission wavelength by using a microplate reader.
Data calculation was carried out through Excel, the apparent permeability index (Papp, cm/s) of compounds was calculated through the formula shown as follow: […]
wherein, the membrane area in the formula is the membrane area of Transwell-96 plate (0.143 cm^2); the unit of incubation time is second (s).
Efflux ratio was calculated through the formula shown as follow: […]

T1 sequence (P08183 whole entry): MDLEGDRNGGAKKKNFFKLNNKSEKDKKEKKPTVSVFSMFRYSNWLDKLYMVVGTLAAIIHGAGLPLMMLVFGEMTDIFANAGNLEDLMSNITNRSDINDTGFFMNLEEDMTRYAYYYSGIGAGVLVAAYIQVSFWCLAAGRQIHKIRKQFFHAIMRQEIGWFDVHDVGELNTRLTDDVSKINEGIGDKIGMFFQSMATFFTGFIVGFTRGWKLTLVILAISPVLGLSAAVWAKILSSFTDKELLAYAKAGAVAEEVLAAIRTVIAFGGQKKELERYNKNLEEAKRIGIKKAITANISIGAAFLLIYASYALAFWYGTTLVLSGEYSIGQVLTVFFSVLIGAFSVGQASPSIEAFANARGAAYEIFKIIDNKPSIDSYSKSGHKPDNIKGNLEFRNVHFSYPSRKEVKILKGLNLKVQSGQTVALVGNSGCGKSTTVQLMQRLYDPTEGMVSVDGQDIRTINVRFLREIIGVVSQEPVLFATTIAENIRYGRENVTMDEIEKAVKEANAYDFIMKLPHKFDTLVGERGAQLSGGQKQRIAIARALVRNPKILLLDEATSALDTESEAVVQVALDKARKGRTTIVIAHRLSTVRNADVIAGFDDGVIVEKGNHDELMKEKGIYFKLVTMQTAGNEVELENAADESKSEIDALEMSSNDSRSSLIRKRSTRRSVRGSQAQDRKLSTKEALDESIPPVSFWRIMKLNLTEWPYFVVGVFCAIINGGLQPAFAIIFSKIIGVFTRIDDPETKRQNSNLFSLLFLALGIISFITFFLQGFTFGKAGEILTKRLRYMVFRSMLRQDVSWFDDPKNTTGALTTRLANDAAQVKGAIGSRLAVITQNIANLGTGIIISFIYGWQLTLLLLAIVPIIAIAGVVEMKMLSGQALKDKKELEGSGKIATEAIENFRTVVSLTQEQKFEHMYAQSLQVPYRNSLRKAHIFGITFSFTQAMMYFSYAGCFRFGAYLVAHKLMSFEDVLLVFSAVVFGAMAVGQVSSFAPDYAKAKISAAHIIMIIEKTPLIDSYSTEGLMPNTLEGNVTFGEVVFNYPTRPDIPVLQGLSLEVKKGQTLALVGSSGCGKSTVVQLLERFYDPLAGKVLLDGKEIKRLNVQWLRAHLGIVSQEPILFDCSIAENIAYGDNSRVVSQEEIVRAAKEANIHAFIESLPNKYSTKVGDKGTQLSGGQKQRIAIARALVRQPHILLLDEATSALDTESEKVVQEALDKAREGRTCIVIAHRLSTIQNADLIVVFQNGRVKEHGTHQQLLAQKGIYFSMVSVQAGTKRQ

Row | IC50 (NCI-H1975; Homo sapiens, NCI-H1975, 72 h) | IC50 (PC-9; Homo sapiens, PC-9, 72 h) | IC50 (A-431; Homo sapiens, A-431, 72 h) | efflux ratio at 2 h (P-gp) | IC50 (NCI-H1975) | IC50 (PC-9) | IC50 (A-431) | SMILES | A-431/NCI-H1975 Selectivity (NCI-H1975)
1 | 99.4 nM | 87.4 nM | 3220 nM | – | – | – | – | C=CC(=O)Nc1cc(Nc2nccc(-c3ccc4c(cnn4C)c3)n2)c(OC)cc1N1C[C@@H](C)N[C@@H](C)C1 [compound 280] | 32.4
2 | 72 nM | 67.9 nM | 3330 nM | – | – | – | – | C=CC(=O)Nc1cc(Nc2nccc(-c3ccc4c(cnn4C)c3)n2)c(OC)cc1N(C)CCNC(C)C [compound 281] | 46.2
3 | 22.7 nM | 32.7 nM | 1370 nM | – | – | – | – | C=CC(=O)Nc1cc(Nc2cc(-c3ccc4c(cnn4C)c3)ncn2)c(CC)cc1N1CCN(C)CC1 [compound 282] | 60.4
4 | 37.3 nM | 46.9 nM | 1520 nM | – | – | – | – | C=CC(=O)Nc1cc(Nc2cc(-c3ccc4c(cnn4C)c3)ncn2)c(CC)cc1N1CCC(N2CCOCC2)CC1 [compound 283] | 40.8
5 | 26.3 nM | 13.4 nM | 670 nM | – | – | – | – | C=CC(=O)Nc1cc(Nc2cc(-c3ccc4c(cnn4C)c3)ncn2)c(OC)cc1N1CCC(N(C)C)C1 (stereo not drawn) [compound 284] | 25.5
6 | 40.6 nM | 23.1 nM | 633 nM | – | – | – | – | C=CC(=O)Nc1cc(Nc2cc(-c3ccc4nc(C)sc4c3)ncn2)c(OC)cc1OCCN(C)C [compound 285] | 15.6
7 | 40.1 nM | 30.9 nM | 804 nM | – | – | – | – | C=CC(=O)Nc1cc(Nc2cc(-c3ccc4c(cnn4C)c3)ncn2)c(OC)cc1C(=O)N(C)CCN(C)C [compound 286] | 20.0
8 | 4 nM | 9.2 nM | 612 nM | – | – | – | – | C=CC(=O)Nc1cc(Nc2cc(-c3ccc4c(cnn4C)c3)ncn2)c(OC(F)F)cc1N(C)CCN(C)C [compound 287] | 152.9
9 | 98.2 nM | 76.7 nM | 1920 nM | – | – | – | – | C=CC(=O)Nc1cc(Nc2cc(-c3ccc4c(cnn4C)c3)ncn2)c(OC)cc1N(C)C(=O)CN(C)C [compound 288] | 19.6
10 | 12.2 nM | 24.1 nM | 1040 nM | – | – | – | – | C=CC(=O)Nc1cc(Nc2cc(-c3ccc4c(cnn4C)c3)ncn2)c(OCC)cc1N(C)CCN(C)C [compound 289] | 85.1
11 | 30.8 nM | 36.5 nM | 1630 nM | – | – | – | – | C=CC(=O)Nc1cc(Nc2nccc(-c3ccc4c(cnn4C)c3)n2)c(OC)cc1C(=O)N(C)CCN(C)C [compound 290] | 52.9
12 | 89.5 nM | 54.3 nM | 2730 nM | – | – | – | – | C=CC(=O)Nc1cc(Nc2cc(-c3ccc4c(cnn4C)c3)ncn2)c(OC2CC2)cc1N(C)CCN(C)C [compound 291] | 30.6
13 | 90.4 nM | 64.7 nM | 2980 nM | – | – | – | – | C=CC(=O)Nc1cc(Nc2nccc(-c3ccc4c(cnn4C)c3)n2)c(OC2CC2)cc1N(C)CCN(C)C [compound 292] | 32.9
14 | 79.6 nM | 54.2 nM | 2730 nM | – | – | – | – | C=CC(=O)Nc1cc(Nc2cc(-c3ccc4c(cnn4C)c3)ncn2)c(OC)cc1N(C)C1CCN(C(C)=O)CC1 [compound 293] | 34.3
15 | 71.3 nM | 44.9 nM | 4580 nM | – | – | – | – | C=CC(=O)Nc1cc(Nc2cc(-c3ccc4c(cnn4C)c3)ncn2)c(OC)cc1CN1CCN(C)CC1 [compound 294] | 64.2
16 | 90.7 nM | 121 nM | 1440 nM | – | – | – | – | C=CC(=O)Nc1cccc(Nc2nc(Nc3ccc4c(cnn4C)c3)ncc2F)c1 [known compound 296, reference compound] | 15.9

The next lines start with the compound.

Row | SMILES | IC50 (NCI-H1975; Homo sapiens, NCI-H1975, 72 h) | IC50 (PC-9; Homo sapiens, PC-9, 72 h) | IC50 (A-431; Homo sapiens, A-431, 72 h) | efflux ratio at 2 h (P-gp) | IC50 (NCI-H1975) | IC50 (PC-9) | IC50 (A-431) | A-431/NCI-H1975 Selectivity (NCI-H1975)
17 | C=CC(=O)Nc1cc(Nc2nccc(-c3ccc4c(cnn4C)c3)n2)c(OC)cc1N(C)CCN(C)C [compound 3] | 4.1 nM | 7.9 nM | 491 nM | 5.87 | – | – | – | 120.3
18 | C=CC(=O)Nc1cc(Nc2cc(-c3ccc4c(cnn4C)c3)ncn2)c(OC)cc1N1CCN(C)CC1 [compound 8] | 3.5 nM | 27.3 nM | 872 nM | 3.14 | – | – | – | 251.1
19 | C=CC(=O)Nc1cc(Nc2cc(-c3ccc4c(cnn4C)c3)ncn2)c(OC)cc1N1CC(C)N(C)C(C)C1 (stereo not drawn) [compound 23] | 13.7 nM | 9 nM | 617 nM | 4.28 | – | – | – | 45.0
20 | C=CC(=O)Nc1cc(Nc2cc(-c3ccc4c(cnn4C)c3)ncn2)c(OC)cc1N1C[C@@H](C)N(C)[C@@H](C)C1 [compound 24] | 11.8 nM | 8.1 nM | 1060 nM | 1.05 | – | – | – | 90.1
21 | C=CC(=O)Nc1cc(Nc2cc(-c3ccc4c(cnn4C)c3)ncn2)c(OC)cc1N1CCC(N(C)C)CC1 [compound 26] | 10.4 nM | 9.1 nM | 216 nM | 5.79 | – | – | – | 20.7
22 | C=CC(=O)Nc1cc(Nc2cc(-c3ccc4c(cnn4C)c3)ncn2)c(OC)cc1N1CCC(N2CCOCC2)CC1 [compound 27] | – | – | – | 1.67 | 14.2 nM | 21.6 nM | 387 nM | 27.2
23 | C=CC(=O)Nc1cc(Nc2cc(-c3ccc4c(cnn4C)c3)ncn2)c(OC)cc1N1CCC(N2CCN(C)CC2)CC1 [compound 33] | 5.6 nM | 8.2 nM | 813 nM | 7.7 | – | – | – | 145.7
24 | C=CC(=O)Nc1cc(Nc2cc(-c3ccc4c(cnn4C)c3)ncn2)c(OC)cc1N1CCC(C2CCN(C)CC2)CC1 [compound 34] | 26.3 nM | 10.7 nM | 1950 nM | 6.12 | – | – | – | 74.1
25 | C=CC(=O)Nc1cc(Nc2cc(-c3ccc4cnn(C)c4c3)ncn2)c(OC)cc1N1C[C@@H](C)N[C@@H](C)C1 [compound 276] | 32.4 nM | 13 nM | 2110 nM | – | – | – | – | 65.1
26 | C=CC(=O)Nc1cc(Nc2cc(-c3ccc4cnn(C)c4c3)ncn2)c(OC(F)F)cc1N1C[C@@H](C)N[C@@H](C)C1 [compound 277] | 52.9 nM | 21.9 nM | 2010 nM | – | – | – | – | 37.9
27 | C=CC(=O)Nc1cc(Nc2nccc(-c3ccc4c(cnn4C)c3)n2)c(OC)cc1N1CCN(CCO)CC1 [compound 278] | 117 nM | 40.9 nM | 2480 nM | – | – | – | – | 21.2
28 | C=CC(=O)Nc1cc(Nc2nccc(-c3ccc4c(cnn4C)c3)n2)c(OC)cc1N(C)CCO [compound 279] | 25.7 nM | 21.4 nM | 2900 nM | – | – | – | – | 112.8
